Data set [1] can be described thus: Rat PK (iv and po). To be noted: for frac. abs.: estimated from %F, Cl and Qh = 70 mL min^–1 kg^–1; for bioavailability: in vivo, 4 mg/kg; for bioavailability / Cl / Vd: iv 1 mpk; for bioavailability / Cmax: po 4 mpk in 0.5% methylcellulose. The format is in vivo. The source says:
This was an early indication that the strategy of increasing potency while lowering lipophilicity would allow us to meet our goal of improving prospects for favorable PK and dose.

In data set [2] the test system is pS6K-T389 in PC-3 cells (TORC1). Description: Cellular pS6K-T389 assay in PC-3 cells (TORC1 activity). The format is cell-based. To be noted: Homo sapiens, read-out: pS6K-T389 cell IC50. An excerpt: Our previously reported inhibitor 1 (Figure 1) was potent against mTOR and selective against the off-target PI3Kα.[10]−[12] The target product profile for 1 and the next-generation analogs described here was for a dual inhibitor against both TORC1 and TORC2. […] We undertook a campaign to identify analogs that had improved prospects for a lower efficacious dose while retaining the favorable selectivity and safety profile of compound 1.

A short description of data set [3]: Thermodynamic solubility. In kind it is physicochemical.
The subject of data set [4] is A549 lung carcinoma cell line xenograft. Description: Mouse xenograft model with A549 lung carcinoma cell line. The format is in vivo. As for the experimental part: Based on the improved rat PK for 14c, it was dosed at 2 and 6 mpk along with lead 1 at 30 mpk—in an effort to achieve similar in vivo exposure profiles—in a mouse xenograft model with the lung carcinoma cell line A549 (Figure 4). […] The 6 mpk dose of 14c reduced the tumor volume by more than 50%. Regrowth was included to assess a possible growth lag period, but as expected, tumor regrowth resumed following mTOR inhibitor withdrawal.[22]
All animal studies were conducted in accordance with Takeda California Institutional Animal Care and Use Committee guidelines in a facility accredited by the American Association for Accreditation of Laboratory Animal Care. Female Nu/Nu mice (Balb/c), approximately 28 days of age and weighing 20 to 23 grams were obtained from Harlan Laboratories. Immuno-compromised and/or inbred mice are used extensively for in vivo cancer research for detecting pharmacological capabilities induced by anti-cancer agents and therefore were chosen as the most appropriate animal model for this study. Five million A549 cells/animal (0.2 mL) w/ Matrigel were implanted S.C. into the right flank of Balb/c Nu/Nu mice.
Low passage A549 cells were grown in F12 media and supplied at a concentration of 50 million cells/mL in DPBS. Treatment was initiated when all study animals had small tumors averaging approximately 150-180 mg. Dosing solutions/suspensions were prepared every 5 days. Compound 1 was suspended in 30% Captisol in 0.05 M MSA pH ~1.5. Compound 14c was suspended in 0.5% MC. Dose solutions/suspensions were given orally at a dose volume of 5 mL/kg. […] The general health of the mice was monitored, and mortality was assessed daily. Tumor dimensions were recorded 2 times per week starting one day before the first day of treatment. Toxicity was assessed as net body weight loss and lethality. Tumor weights are calculated using the equation (a x b2)/2, where a and b refer to the larger and smaller dimensions collected at each measurement. Error bars in each plot of % tumor volume change vs. days of treatment were calculated as the standard error of the means. […]

Data set [5] deals with T1, CYP2C8 (Homo sapiens, UniProt P10632).
T1 sequence (P10632 1-490): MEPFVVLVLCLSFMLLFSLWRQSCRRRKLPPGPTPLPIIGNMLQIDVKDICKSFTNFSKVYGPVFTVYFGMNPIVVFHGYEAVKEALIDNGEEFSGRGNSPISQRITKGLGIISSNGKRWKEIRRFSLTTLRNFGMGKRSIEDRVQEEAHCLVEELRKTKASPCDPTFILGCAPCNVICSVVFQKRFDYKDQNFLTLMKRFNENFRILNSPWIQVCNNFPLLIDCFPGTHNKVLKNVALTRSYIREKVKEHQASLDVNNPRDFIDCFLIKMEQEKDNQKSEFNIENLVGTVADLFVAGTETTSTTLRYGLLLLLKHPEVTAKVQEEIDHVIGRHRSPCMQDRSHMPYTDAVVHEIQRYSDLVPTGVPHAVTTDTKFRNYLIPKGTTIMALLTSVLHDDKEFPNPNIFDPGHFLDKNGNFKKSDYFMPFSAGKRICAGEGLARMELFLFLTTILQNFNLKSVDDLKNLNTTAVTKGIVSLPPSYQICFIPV
Description: CYP inhibition, 2C8. The format is in vitro ADME. Particulars: most potently inhibited CYP isoform.

The test system of data set [6] is PI3Kα. As to the kind of experiment: PI3Kα enzyme selectivity (PI3Kα IC50 over mTOR IC50). Particulars: ratio of PI3Kα enzyme IC50 over mTOR enzyme IC50. In kind it is biochemical.
[7] abbreviates: pH 1.2, read-out: Thermodynamic solubility at pH 1.2.
Setting [8] is: pH 6.8, read-out: Thermodynamic solubility at pH 6.8.

The source of these data is paper PMC10641921, “Optimization of mTOR Inhibitors Using Property-Based Drug Design and Free–Wilson Analysis for Improved In Vivo Efficacy” (ACS Medicinal Chemistry Letters, 2023).

pIC50: −log10 of the molar value. In brackets after ≈: the same amount, converted by molar mass. Where two headings read alike, the source gives them in different places.

For the compound `C[C@@]12COCCN1c1nc(-c3cccc4[nH]ccc34)ncc1N([C@H]1CC[C@H](O)CC1)C2=O` [14c], in data set [1], the frac. abs. is on record as 100%; the bioavailability (in general, the share of a dose that reaches the circulation, judged against a reference dose that is usually intravenous) came to 94%; the Cl was 7.0 mL min^–1 kg^–1; the Vd is reported as 1.3 L/kg. Besides, in data set [1], the Cmax – broadly, the maximum level reached in the sampled fluid or tissue – was found to be 1600 nM. For the same compound, in data set [2], the pIC50 (as a rule, the IC50 on a negative log10 scale, so that one unit is a factor of ten) is 8.22. For the same compound, the thermodynamic solubility – broadly, the concentration in solution at equilibrium with solid – in data set [3] (setting [7]) is 3960 µM (≈ 1720 µg/mL). Moreover, the solubility (thermodynamic) in data set [3] (setting [8]) is 6 µM (≈ 2.6 µg/mL). Also, the Tumor growth entry in data set [4] (2 mpk po QD 14 days) is listed as “fully inhibited tumor growth”. In addition, in data set [4] (6 mpk po QD 14 days), the Tumor volume reduction entry is recorded as “more than 50%”. Further, in data set [5], the negative-log IC50 (pIC50) was 4.68. Also, in data set [6], the PI3Ka sel. was 240 ×. The “PI3Kα Sel” value in data set [6] (Table 2, unit not given) was determined as 240.

On to `CC(F)(F)CN1C(=O)[C@]2(C)COCCN2c2nc(-c3ccc(NC(=O)NC4CC4)cc3)ncc21` [compound 1], for which, in data set [1], the frac. abs. was 22%, the bioavailability was 20%, the Cl amounted to 6.9 mL min^–1 kg^–1 and the Vd was 0.95 L/kg. The same compound gave a Cmax in data set [1] of 320 nM. In data set [2], the negative logarithm of the IC50 (pIC50) is 7.31. Also, the thermodynamic solubility in data set [3] (setting [7]) amounted to 340 µM (≈ 161 µg/mL). Moreover, the solubility (thermodynamic) in data set [3] (setting [8]) is 0.6 µM (≈ 0.283 µg/mL). Besides, in data set [4] (30 mpk po QD 14 days), the Tumor growth entry was “fully inhibited tumor growth”. In data set [5], this compound had a pIC50 of 5.15. Moreover, the “PI3Kα Sel” value in data set [6] is given as 54 x.
